According to patent publication US4705796A, “Use of 3-N-phenylacetylamino-2,6-piperidinedione for treatment of neuropsychiatric disorders” (priority 1986, dated 1987):

Key:
[1] = system: PEA induced stereotype behavior; test: PEA induced stereotype behavior in rats; type: in vivo, rat
[2] = system: reserpine-induced akinesia; test: PEA reversal of reserpine-induced akinesia in rats; type: in vivo, rat
[3] = system: PEA induced rotations in unilateral nigral lesioned rats; test: Rotational behavior in unilateral substantia nigra 6-hydroxydopamine lesioned rats; type: in vivo, rat
human brain MAO B = molecular target: T1, human brain MAO B (Homo sapiens, UniProt P27338); test: MAO B activity in human brain homogenate (14C-PEA substrate); type: biochemical
T1 construct: Human and rat caudate nuclei were homogenized in 0.32M sucrose; from tissue; host or cells: human caudate nucleus homogenate (1%)
T1 sequence (P27338 1-520): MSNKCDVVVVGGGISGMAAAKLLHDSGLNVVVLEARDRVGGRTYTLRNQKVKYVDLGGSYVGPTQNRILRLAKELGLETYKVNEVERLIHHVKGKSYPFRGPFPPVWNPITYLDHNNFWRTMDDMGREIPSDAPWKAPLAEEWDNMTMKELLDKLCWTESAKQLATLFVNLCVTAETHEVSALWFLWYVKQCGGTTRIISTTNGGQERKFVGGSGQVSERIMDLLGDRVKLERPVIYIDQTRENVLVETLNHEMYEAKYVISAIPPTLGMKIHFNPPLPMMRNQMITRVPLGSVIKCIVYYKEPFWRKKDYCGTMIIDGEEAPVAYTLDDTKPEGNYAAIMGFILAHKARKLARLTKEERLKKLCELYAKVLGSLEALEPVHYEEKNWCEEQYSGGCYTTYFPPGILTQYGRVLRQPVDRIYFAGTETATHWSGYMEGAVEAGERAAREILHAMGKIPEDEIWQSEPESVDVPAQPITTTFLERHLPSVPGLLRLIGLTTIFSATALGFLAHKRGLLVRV

[4] = system: rat caudate nucleus (H^3-spiroperidol); test: Displacement of H^3-spiroperidol from rat caudate nucleus; type: binding; conditions: in vitro
human platelet MAO B = molecular target: T2, human platelet MAO B (Homo sapiens, UniProt P27338); test: Inhibition of platelet MAO B activity in vitro (human platelets); type: biochemical
T2 construct: The platelet pellet was resuspended in 5.0 ml of 0.1 M phosphate buffer with pH 7.4 by sonication; from tissue; host or cells: human blood platelets from normal volunteers, sonicated
T2 sequence (P27338 1-520): T1 sequence (P27338 1-520)

rat brain MAO B = molecular target: T3, rat brain MAO B (Rattus norvegicus, UniProt P19643); test: MAO B activity in rat brain homogenate (14C-PEA substrate); type: biochemical
T3 construct: Human and rat caudate nuclei were homogenized in 0.32M sucrose; from tissue; host or cells: rat caudate nucleus homogenate (1%)
T3 sequence (P19643 1-520): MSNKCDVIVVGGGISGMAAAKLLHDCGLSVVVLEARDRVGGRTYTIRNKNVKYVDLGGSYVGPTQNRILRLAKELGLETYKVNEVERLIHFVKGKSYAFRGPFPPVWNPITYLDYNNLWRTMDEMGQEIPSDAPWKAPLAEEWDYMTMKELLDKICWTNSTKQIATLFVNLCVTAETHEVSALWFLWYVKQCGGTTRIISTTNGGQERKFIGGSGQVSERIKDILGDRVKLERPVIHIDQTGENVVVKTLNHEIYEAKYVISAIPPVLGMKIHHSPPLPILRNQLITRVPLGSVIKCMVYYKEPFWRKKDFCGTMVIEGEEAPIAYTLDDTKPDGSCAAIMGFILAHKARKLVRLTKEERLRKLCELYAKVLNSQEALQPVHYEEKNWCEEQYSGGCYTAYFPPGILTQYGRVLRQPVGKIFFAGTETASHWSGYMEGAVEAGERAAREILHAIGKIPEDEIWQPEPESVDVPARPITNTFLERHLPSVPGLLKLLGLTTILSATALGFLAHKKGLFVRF

[5] = system: apomorphine and amphetamine induced locomotor changes; test: Reversal of apomorphine and amphetamine induced locomotor changes in rats; type: in vivo, rat
Description: Thereafter, an analysis of a PAPD was undertaken in vitro and in vivo beginning with antipsychotic (neuroleptic) and antidepressant activity. […] The two distinct forms of the enzyme have been designated as type A (serotonin metabolizing and clorgyline sensitive) and type […] metabolizing and clorgyline insensitive). Based on the stereochemical model, it was predicted that PAPD's effect on MAO type B would be greater than its effect on MAO type A. In vitro data has substantiated this prediction.

cancer patients = conditions: cited from earlier work
rat brain MAO A = molecular target: T4, rat brain MAO A (Rattus norvegicus, UniProt P21396); test: MAO A activity in rat brain homogenate (14C-5HT substrate); type: biochemical; conditions: substrate 14C-5HT; SD ±6.0
T4 construct: Human and rat caudate nuclei were homogenized in 0.32M sucrose; from tissue; host or cells: rat caudate nucleus homogenate (1%)
T4 sequence (P21396 1-526): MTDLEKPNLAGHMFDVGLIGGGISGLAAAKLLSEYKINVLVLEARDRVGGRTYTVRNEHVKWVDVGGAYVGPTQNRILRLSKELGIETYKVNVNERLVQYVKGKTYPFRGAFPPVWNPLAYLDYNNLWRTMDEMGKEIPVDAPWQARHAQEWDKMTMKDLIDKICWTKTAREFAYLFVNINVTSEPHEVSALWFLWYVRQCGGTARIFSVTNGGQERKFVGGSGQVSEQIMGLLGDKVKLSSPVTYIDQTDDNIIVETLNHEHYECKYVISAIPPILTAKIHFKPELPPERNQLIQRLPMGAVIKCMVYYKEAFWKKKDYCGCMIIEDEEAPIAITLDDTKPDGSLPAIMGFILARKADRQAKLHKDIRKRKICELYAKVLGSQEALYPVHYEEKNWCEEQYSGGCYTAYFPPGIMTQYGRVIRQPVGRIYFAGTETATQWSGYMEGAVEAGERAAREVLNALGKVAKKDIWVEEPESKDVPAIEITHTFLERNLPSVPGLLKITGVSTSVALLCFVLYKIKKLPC

human brain MAO A = molecular target: T5, human brain MAO A (Homo sapiens, UniProt P21397); test: MAO A activity in human brain homogenate (14C-5HT substrate); type: biochemical; conditions: substrate 14C-5HT; SD 15.1
T5 construct: Human and rat caudate nuclei were homogenized in 0.32M sucrose; from tissue; host or cells: human caudate nucleus homogenate (1%)
T5 sequence (P21397 1-527): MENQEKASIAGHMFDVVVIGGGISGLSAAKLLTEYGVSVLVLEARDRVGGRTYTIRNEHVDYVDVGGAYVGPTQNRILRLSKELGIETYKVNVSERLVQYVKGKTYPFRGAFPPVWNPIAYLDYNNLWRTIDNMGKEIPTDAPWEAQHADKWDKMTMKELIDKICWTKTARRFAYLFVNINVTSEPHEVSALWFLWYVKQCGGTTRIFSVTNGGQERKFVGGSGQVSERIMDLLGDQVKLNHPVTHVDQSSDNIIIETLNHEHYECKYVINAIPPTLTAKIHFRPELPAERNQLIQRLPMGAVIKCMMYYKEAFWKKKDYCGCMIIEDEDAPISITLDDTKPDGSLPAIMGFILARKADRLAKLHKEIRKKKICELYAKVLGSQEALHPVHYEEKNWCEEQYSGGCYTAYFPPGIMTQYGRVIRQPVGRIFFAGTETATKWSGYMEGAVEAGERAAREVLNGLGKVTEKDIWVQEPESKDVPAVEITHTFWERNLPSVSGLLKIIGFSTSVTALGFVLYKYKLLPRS

[6] = clorgyline 5 mg/kg, 1 h prior to PEA
[7] = deprenyl 10 mg/kg, 1 h prior to PEA
[8] = pargyline 50 mg/kg, prior to PEA
[9] = PAPD (200 mg/kg by context), 1 h prior to PEA

## C#CCN(C)CCCOc1ccc(Cl)cc1Cl [clorgyline, reference compound]
[1]; clorgyline 5 mg/kg
  forepaw padding syndrome: did not produce this syndrome
  other stereotype behavior: stereotyped headbobbing
[1]; clorgyline 10 mg/kg, 1 h prior to PEA
  animals with forepaw padding, sniffing, headweaving and retropulsion: 100%
[1]; clorgyline, both doses (5 and 10 mg/kg)
  duration of stereotype behavior: 30 min
[2]; [6]
  activity compared with PEA control animals: not as active as PEA control animals
  duration of behavior: 45 min
  latency to reversal of akinesia: less than five minutes
  serotonin type behavior: splayed hind legs, myoclonic jerks and headweaving

## NCCc1ccccc1 [PEA, phenylethylamine]
[1]; PEA 50 mg/kg alone
  stereotype behavior: no stereotype behavior was observed
[3]; PEA 50 mg/kg alone
  duration of rotations: 30 min
[3]; rat, in vivo
  ipsilateral turning: induced ipsilateral turning
[2]; PEA 50 mg/kg i.p. alone
  duration of activity / reversal of akinesia: 30 min
[2]; PEA 50 mg/kg i.p. alone, reserpine 10 mg/kg i.p.
  latency to reversal of akinesia: less than five minutes

## NNCCc1ccccc1 [phenelzine, reference compound]
Human brain MAO B
  potency relative to PAPD: two orders of magnitude more potent than PAPD

## C#CCN(C)C(C)Cc1ccccc1 (centres unmarked) [deprenyl, reference compound]
[1]; deprenyl 5 mg/kg, 1 h prior to PEA
  animals with forepaw padding with continuous sniffing and headweaving: 50%
[1]; [7]
  animals with forepaw padding with continuous sniffing and headweaving: 100%
[1]; deprenyl, 1 h prior to PEA
  duration of stereotype behavior: 60 min
  other stereotype behavior: no other stereotype behavior observed
[3]; [7]
  duration of PEA rotations: increased the duration of PEA rotations
[3]; rat, in vivo
  number of ipsilateral turns induced by PEA: doubled the number of ipsilateral turns

## C#CCN(C)Cc1ccccc1 [pargyline]
[2]; [8]
  duration of activity with increased locomotion: 45 min
  latency to reversal of akinesia: less than five minutes

## O=C1CCC(NC(=O)Cc2ccccc2)C(=O)N1 (centres unmarked) [PAPD, 3-N-phenylacetylamino-2,6-piperidinedione]
[4]
  displacement of H^3-spiroperidol: inability to displace H^3 -spiroperidol from rat caudate nucleus
[1]; 4 and 24 hours after PAPD (both groups)
  duration of stereotype behavior: 30 min
[1]; 4 hours after PAPD
  animals displaying forepaw padding/sniffing/headweaving: 50%
[1]; 24 hours after PAPD
  animals displaying forepaw padding/sniffing/headweaving: 66%
[1]; PAPD 50 and 100 mg/kg pretreatment
  effect on PEA behavior: no effects on PEA behavior were noticed
[1]; PAPD 200 and 400 mg/kg
  animals with forepaw padding with continuous sniffing as well as headweaving: 100%
  duration of stereotype behavior: 45 to 50 min
  other stereotype behavior: headbobbing
[1]; PAPD one and two hours prior to PEA
  animals with forepaw padding with continuous sniffing as well as headweaving: 100%
[1]; PAPD one hour prior to PEA
  duration of stereotype behavior: 45 min
[1]; PAPD two hours prior to PEA
  duration of stereotype behavior: 55 min
Human platelet MAO B; above 1.0 mM
  maximal inhibition of platelet MAO B: 100%
Human platelet MAO B; compared with PAPD / pargyline
  inhibition of platelet MAO, relative potency: less potent than pargyline
Human platelet MAO B; platelets from 6 subjects, duplicate assays, SD 34.5×10^-6
  IC50: 63.8 µM
Human platelet MAO B; range of 0.1 to 1.0 mM
  inhibition with increasing concentration: linear inhibition
Human platelet MAO B; standard platelet analysis
  platelet MAO inhibition: significant degree of MAO inhibition
Rat brain MAO B; in vitro and in vivo analyses, summary
  inhibition of MAO type B versus MAO type A: inhibition of MAO type B greater than that for MAO type A
Rat brain MAO B; rat brain
  selectivity: concentrations inhibiting MAO B compared with MAO A: 10 times less
Rat brain MAO B; substrate 14C-PEA, SD ±2.1
  IC50: 8 µM
[3]; PAPD 200 mg/kg, 1 h before PEA
  number and duration of PEA rotations: increased the number and duration of PEA rotations
[3]; PAPD 50, 100 and 150 mg/kg, 1 h before PEA
  number or duration of PEA rotations: did not affect the number or duration of PEA rotations
[5]
  reversal of apomorphine and amphetamine induced locomotor changes: inability to reverse apomorphine and amphetamine induced locomotor changes in rats
Human brain MAO B; human brain tissue
  selectivity for type B MAO: five times more selective
Human brain MAO B; substrate 14C-PEA, PAPD SD 3.7
  IC50: 19.9 µM
Cancer patients; human, in vivo
  toxic effects: lack of toxic effects
Cancer patients; some cancer patients
  mood: elevation of mood
  need for analgesia: diminished need for analgesia
[2]; PAPD 200 mg/kg, 1 h prior to PEA
  effect on duration of PEA's reversal of akinesia: potentiated the duration of PEA's reversal of akinesia
[2]; PAPD 50 and 100 mg/kg, 1 h prior to PEA
  effect on reversal induced by PEA: antagonized the reversal induced by PEA
[2]; [9]
  duration of activity with increased locomotion: 50 min
  latency to reversal of akinesia: less than five minutes
[2]; PAPD (200 mg/kg by context), interspersed with locomotor activity
  serotonin behaviors: headweaving and tremors
Rat brain MAO A
  IC50: 93.3 µM
Human brain MAO A
  IC50: 139 µM
